Data taken from BindingDB's records for doi:10.1016/j.bmc.2008.07.022 (Universidade Federal De Lavras-Ufla, 2008).

Biological target: cGMP-specific 3',5'-cyclic phosphodiesterase (Homo sapiens, UniProt O76074)
Test: Inhibition of PDE5

IC50 [nM] | Structure (SMILES)
30 | CCCCn1c(O)c2n(c1=O)[C@H](c1ccsc1)c1[nH]c3ccccc3c1C2 [Cis-2-Butyl-10-thiophen-3-yl-3a,4,9,10-tetrahydro-2,9,10a-triaza-cyclopenta[b]fluorene-1,3-dione]
30 | CCOc1ccc([C@H]2c3[nH]c4ccccc4c3Cc3c(O)n(CCN(C)C)c(=O)n32)cc1
100 | CCOc1ccc([C@H]2c3[nH]c4ccccc4c3Cc3c(O)n(CCn4cccc4)c(=O)n32)cc1
20 | CCOc1ccc([C@H]2c3[nH]c4ccccc4c3Cc3c(O)[nH]c(=O)n32)cc1
20 | CCOc1ccc([C@H]2c3[nH]c4ccccc4c3Cc3c(O)n(Cc4cccnc4)c(=O)n32)cc1
100 | CCCCn1c(O)c2n(c1=O)[C@H](c1ccoc1)c1[nH]c3ccccc3c1C2 [(3aR,10R)-2-Butyl-10-furan-3-yl-3a,4,9,10-tetrahydro-2,9,10a-triaza-cyclopenta[b]fluorene-1,3-dione]
